The values that follow come from patent US11590117B2, “Treatment of a hematologic malignancy with 2-(4-chlorophenyl)-n-((2-(2,6-dioxopiperidin-3-yl)-1-oxoisoindolin-5-yl)methyl)-2,2-difluoroacetamide” (priority 2016, dated 2023).

Read-outs that look alike come from different tables or passages of the source.

A word on the IC50: it is the midpoint of a concentration-inhibition curve.

In one assay the test system is PBMCs. The assay is described as follows: CellTiter-Glo (CTG) cell proliferation assay, 72 hours, anti-CD3 stimulated. The format is cell-based, human. The settings on record: for IC50: Homo sapiens, PBMC. As for the experimental part:
Preparation of Solutions of Test Article: Compounds were plated into black 384-well plates (Corning Inc.) to a final DMSO volume of 0.1% assuming a maximal volume of 50 μL. A 10-point dose response starting at 10 μM with a 1:3 dilution was printed in duplicate by acoustic dispense using the EDC ATS-100 platform.
Cell Proliferation Assays: The effect of Compound 1 on the proliferation/viability of the hematological cell lines (Table 1 Table, Table 2 and Table 3), THLE-2, or PBMCs was assessed after 72 hours incubation using CTG (Promega), according to manufacturer's instructions. Hematological cell lines were dispensed into compound plates by a Multidrop™ Combi Reagent Dispenser (Thermo Scientific, Waltham, Mass.) at a concentration of 0.1 to 0.3×10^6 cells per mL in a 50 μL total volume. THLE-2 cells were seeded out at 1000 cells per well in 50 μL volume and incubated for 72 hours. At 72 hours, 25 μL per well of CTG was dispensed by a Multidrop™ Combi Reagent Dispenser and adenosine triphosphate (ATP) release by viable cells was measured as relative luminescence units after 30 minutes using the Envision platform.
For frozen PBMCs, cells were thawed at 37° C. for 2 minutes in RPMI with 10% FBS and cell counts and viability were measured on the ViCell as previously described. Peripheral blood mononuclear cells were washed and diluted to 1×10^6 cells per mL and dispensed by a Multidrop™ Combi Reagent Dispenser in a volume of 25 μL/well into the compound plates and incubated for 2 hours. After 2 hours, 25 μL of anti-CD3 antibody-bound beads (1 cell. 2 anti-human CD3 antibody-coated M-450 beads) were dispensed per well and incubated for a further 72 hours. After 72 hours, 15 μL of supernatants were collected for the analysis of interleukin (IL)-2 release using the Human IL-2 384-well Tissue Culture Kit (Meso Scale Diagnostics), according to the manufacturer's instructions, and the remaining cell suspension was processed with CTG.
In order to calculate the therapeutic window for Compound 1, the compound was counter-screened against the immortalized (but non-tumorigenic) human hepatocyte-derived cell line THLE-2 (Pfeifer, et al, Proc Natl Acad Sci USA 1993 90(11):5123-5127) and against primary human PBMCs. […] The Compound 1 therapeutic window for the 10 sensitive AML cell lines as compared to THLE-2 cells ranged from 4.1 (KG-1a) to 57 (HNT-34) (method 1) or from 5.7 (KG-1a) to 79.5 (HNT-34) (method 2); the Compound 1 therapeutic window as compared to PBMCs ranged from 2.6 (KG-1a) to 36 (HNT-34)), or from 1.5 (KG-1a) to 21 (HNT-34) (Table 6).
Cultures of 11 different AML cell lines were incubated 72 hours with Compound 1 at concentrations of 0.5 nM to 10 μM. Proliferation was assessed using the CellTitre-Glo® assay. Results for cultures incubated with Compound 1 were normalized to results for control cultures for each cell line. Inhibition of cell growth was also determined in THLE-2 cells at Compound 1 concentrations of 0.1 nM to 100 μM and in PBMCs at Compound 1 concentrations of 0.5 nM to […]. The Compound 1 therapeutic window was calculated using area under the curve (AUC; Activity Area [Barretina et al, Nature (2012) 483603-607] measurements (in arbitrary units) as determined using GraphPad Prism software for plots of cell proliferation vs concentration and dividing the AUC for the immortalized (but nontumorigenic) human THLE-2 hepatocyte cell line or PBMCs by the AUC for the AML cell line.
The effects of Compound 1 in healthy PBMCs were also assessed. Compound 1 was added to PBMC s from one donor at time zero and assessed at 72 hours. This was compared to PBMCs that were pre-activated and proliferating on anti-CD3 antibody-coated plates for 72 hours before Compound 1 was added and the cells were incubated for an additional 72 hours. HNT-34 cells were used as a sensitive positive control cell line. […]
On the technique in general: In ATP-based viability assays light output follows the ATP content of the culture.

The subject of another assay is selected AML cell lines. The assay is described as follows: Annexin V/7-AAD flow cytometry apoptosis assay, panel of selected AML cell lines. It is filed as cell-based, human. The settings on record: after 24 and 48 hours, in 4 out of the 5 cell lines evaluated. On the procedure:
Cell Apoptosis Assays: The ability of Compound 1 to induce apoptosis was assessed in selected AML cell lines and healthy PBMCs at the time points and compound concentrations indicated. For Annexin V/7-AAD readout by flow cytometry, AML cell lines were plated into flat bottom 96-well plates (BD Falcon) at a seeding density of 0.1 to 0.3×10^6 cells per mL in 200 μL complete media. Compound 1 was dispensed onto the plates and the cells were incubated for the times indicated. For frozen PBMCs, cells were thawed as previously described and plated at a seeding density of 1×10^6 cells per mL in 200 μL on Corning® BioCoat™ T-Cell Activation Anti-Human CD3 96-well plates (Corning Inc., Corning, N.Y.). Compound 1 was dispensed onto the plates and the cells were incubated for the times indicated. […] One hundred microliters of Annexin V/7-AAD buffer was added per well and the cells incubated for 15 minutes before being analyzed using the Attune Flow Cytometer (Life Technologies, Carlsbad, Calif.). For caspase 3/7 activity, the remaining 100 μL was incubated with CellEvent™ Caspase-3/7 Green ReadyProbes® Reagent (1:1000 dilution; Molecular Probes) for 15 minutes before being analyzed using the Attune Flow Cytometer. […]
Compound 1 Induces Apoptosis in Acute Myeloid Leukemia Cell Lines. […] 0.01 μM and 0.1 μM and apoptosis was assessed over time.
In general terms: Flow cytometry measures light scatter and fluorescence of single cells or particles in a stream.

For `O=C1CCC(N2Cc3cc(CNC(=O)C(F)(F)c4ccc(Cl)cc4)ccc3C2=O)C(=O)N1` (stereo not shown) [Compound 1, 2-(4-chlorophenyl)-N-((2-(2,6-dioxopiperidin-3-yl)-1-oxoisoindolin-5-yl)methyl)-2,2-difluoroacetamide], the concentration for half-maximal inhibition (IC50) in the assay with PBMCs (72 h, PBMCs not pre-activated, 72 hours, read-out: CTG IC50) is 100 nM; in the assay on PBMCs (72 h, pre-activated PBMCs (72 hours on anti-CD3 plates before compound), 72 hours, CTG and viable cell count, read-out: antiproliferative IC50), over 10000 nM; in the assay with PBMCs (72 h, primary human PBMCs, 72 hours, read-out: antiproliferative IC50), 120 nM; with PBMCs (pre-activated PBMCs, CTG and viable cell count, read-out: antiproliferative IC50) it was over 10000 nM. Further, in the assay with PBMCs (PBMCs normal cells), the “AUC Method 1” value is reported as 251.1 arbitrary units. Further, the “AUC Method 2” value in the assay with PBMCs (PBMCs normal cells) is 145.1 arbitrary units. For the same molecule, in the assay on selected AML cell lines, the induction of apoptosis entry is given as “marked induction of apoptosis”.
